Three molecules from patent US20250325684A1, “POTENT ANTI-CANCER CYCLOTIDES” (University of Southern California, priority 2022, published 2025) can be followed below.

One assay deals with SW1990. Kind of assay: MTT cell viability, SW1990 cells. The class given is cell-based, human. Conditions: SW1990 pancreatic adenocarcinoma, p53 Mutant (Deletion). The protocol:
(§1) Cell viability assay in several human cancer cell lines (See Tables 1 to 10). Cell lines were cultured in RPMI 1640 (or recommended medium when indicated) medium supplemented with 10% fetal calf serum, penicillin (50 IU/mL) and streptomycin ([…]) at 37° C. in 5% CO2. Cell viability studies was carried using the MTT (3-(4,5-dimethylthiazol-2-yl)-2,5-diphenyltetrazolium bromide) assay as previously described (31). Briefly, ≈2×10^3 CRC cells were be seeded in 96-well microtiter plates in 100 μL RPMI 1640 in the presence of 10% calf serum. […] After 1 h, 210 μL/well of full complemented media was added, the cells were grown for 48 h and then treated with 20 μL of a solution of MTT (5 mg/mL) for 2 h. The medium was discarded and DMSO ([…]) was added to each well and incubated with gentle shaking for 20 min at room temperature. The absorbance at 595 nm of the solution is analyzed using a Tecan Genios Multifunctional Microplate Reader (Tecan System Inc) and the background at 670 nm subtracted. RNA-Seq analysis was performed using state-of-the-art bioinformatics tools. Briefly, raw RNA-Seq reads were mapped to human genome (hg38) using STAR aligner (v2.7.3a). Gencode Release 36 reference was used for annotation. Transcript and gene expression levels were quantified using the IsoEM (37) with default parameters. Counts per million (CPM) method is used for normalization. Differential expression was done using DESeq2 with default parameters. Genes involved in different biological pathways (human) were searched from Geneontology (http://geneontology.org/). Bioinformatics results can be validated by using Partek Flow (v10.0.21.0912), a bioinformatics pipeline developed by Zymo Research (https://www.zymoresearch.com/).
(§2) Cell viability was evaluated using the MTT assay as described above.

The next assay has as its system SW626. Kind of assay: MTT cell viability, SW626 cells. The class given is cell-based, human. The following applies: p53 Mutant. On the procedure: as §1, §2
Another assay has as its system MIA PaCa-2. As to the kind of experiment: MTT cell viability, MIA PaCa-2 cells. Conditions: MIA PaCa-2 pancreatic ductal adenocarcinoma, p53 Mutant. The class given is cell-based, human. On the procedure:
as §1, §2

The subject of the next assay is SW480. Kind of assay: MTT cell viability, SW480 cells. The class given is cell-based, human. Conditions: SW480 colon adenocarcinoma, p53 Mutant. On the procedure:
as §1, §2

The next assay deals with A2780. As to the kind of experiment: MTT cell viability, A2780 ovarian cells. The class given is cell-based, human. The following applies: p53 WT. The protocol:
(§3) Cell viability assay in several human cancer cell lines (See Tables 1 to 10). Cell lines were cultured in RPMI 1640 (or recommended medium when indicated) medium supplemented with 10% fetal calf serum, penicillin (50 IU/mL) and streptomycin ([…]) at 37° C. in 5% CO2. Cell viability studies was carried using the MTT (3-(4,5-dimethylthiazol-2-yl)-2,5-diphenyltetrazolium bromide) assay as previously described (31). Briefly, ≈2×10^3 CRC cells were be seeded in 96-well microtiter plates in 100 μL RPMI 1640 in the presence of 10% calf serum. After 24 h incubation the cells were washed with PBS and treated with 30 μL/well of PBS or RPMI 1640 (or recommended) media containing cyclotides MCo-52, MCoTI-I (used as negative control), nutlin-3a (used as positive control) or MI-77301 (used as positive control for p53-mutated or p53-null cells) at the indicated doses for 1 h at 37° C. in 5% CO2. After 1 h, 210 μL/well of full complemented media was added, the cells were grown for 48 h and then treated with 20 μL of a solution of MTT (5 mg/mL) for 2 h. The medium was discarded and DMSO ([…]) was added to each well and incubated with gentle shaking for 20 min at room temperature. The absorbance at 595 nm of the solution is analyzed using a Tecan Genios Multifunctional Microplate Reader (Tecan System Inc) and the background at 670 nm subtracted. RNA-Seq analysis was performed using state-of-the-art bioinformatics tools. Briefly, raw RNA-Seq reads were mapped to human genome (hg38) using STAR aligner (v2.7.3a). Gencode Release 36 reference was used for annotation. Transcript and gene expression levels were quantified using the IsoEM (37) with default parameters. Counts per million (CPM) method is used for normalization. Differential expression was done using DESeq2 with default parameters. Genes involved in different biological pathways (human) were searched from Geneontology (http://geneontology.org/). Bioinformatics results can be validated by using Partek Flow (v10.0.21.0912), a bioinformatics pipeline developed by Zymo Research (https://www.zymoresearch.com/).
(§4) Tables 1 through 10 show in vitro activity of cyclotide MCo-52-2-cTAT against different human cancer cell lines, some with null-, mutated, or wildtype p53 phenotypes. Cell viability was evaluated using the MTT assay as described above.

Another assay has as its system HT29. Kind of assay: MTT cell viability, HT29 cells. The class given is cell-based, human. The following applies: HT29 colon adenocarcinoma, p53 Mutant. The protocol:
as §1, §2

The test system of the next assay is PC-3. As to the kind of experiment: MTT cell viability, PC-3 cells. The class given is cell-based. The following applies: PC-3 prostate carcinoma, p53 Mutant, read-out: Cell viability, Human Prostate Cancer Cells. On the procedure: as §3, §4
Another assay has as its system AsPC-1. As to the kind of experiment: MTT cell viability, AsPC-1 cells. The class given is cell-based, human. The following applies: AsPC-1 pancreatic ductal adenocarcinoma, p53 Mutant. On the procedure: as §1, §2
The test system of the next assay is NIHOVCAR3. As to the kind of experiment: MTT cell viability, NIHOVCAR3 ovarian cells. The class given is cell-based, human. The following applies: p53 Mutant. On the procedure:
as §3, §4

Another assay has as its system ES-2. As to the kind of experiment: MTT cell viability, ES-2 ovarian cells. The class given is cell-based, human. The following applies: p53 Mutant. The protocol:
as §3, §4

Another assay deals with Capan-1. As to the kind of experiment: MTT cell viability, Capan-1 cells. The class given is cell-based, human. Conditions: Capan-1 pancreatic ductal adenocarcinoma, p53 Mutant. The protocol: as §1, §2
A further assay has as its system SKOV 3. Kind of assay: MTT cell viability, SKOV 3 ovarian cells. Conditions: p53 Mutant. The class given is cell-based, human. On the procedure: as §3, §4
A further assay has as its system CFPAC-1. As to the kind of experiment: MTT cell viability, CFPAC-1 cells. The class given is cell-based, human. The following applies: CFPAC-1 pancreatic ductal adenocarcinoma, p53 Mutant. On the procedure: as §1, §2
In another assay the test system is BxPC-3. Kind of assay: MTT cell viability, BxPC-3 cells. The class given is cell-based, human. Conditions: BxPC-3 pancreatic ductal adenocarcinoma, p53 Mutant. On the procedure: as §1, §2
For the next assay, the system named is PANC-1. As to the kind of experiment: MTT cell viability, PANC-1 cells. The class given is cell-based, human. Conditions: PANC-1 pancreatic ductal adenocarcinoma, p53 Mutant. On the procedure:
as §1, §2

In a further assay the test system is DU145. As to the kind of experiment: MTT cell viability, DU145 cells. The class given is cell-based. The following applies: DU145 prostate carcinoma, p53 Mutant, read-out: Cell viability, Human Prostate Cancer Cells. The protocol:
as §3, §4

The next assay deals with HPAF-II. Kind of assay: MTT cell viability, HPAF-II cells. Conditions: HPAF-II pancreatic ductal adenocarcinoma, p53 Mutant. The class given is cell-based, human. On the procedure:
as §1, §2

Where [1] appears, read: SW626 colon adenocarcinoma metastatic site: Ovary, MTT (Table 1), read-out: EC50.
The mark [2] stands for this setting: SW626 ovarian cells, MTT (Table 7), read-out: Cell Viability Assay.

Where two headings read alike, the source gives them in different places. Numbered stars: 1 amine (or outer) side, 2 acyl side, 3 side chain; on linkers, the order of the positions; unused ones are H or OH. Bridge positions count the residues as written; N and C are the ends. Square brackets hold non-standard residues; d marks the D form. Peptide text beside a SMILES is read from it. I, II: the chains in the order shown. X1 = O=C(CCc1cn(CCOCCOCCOCCC(=O)[*:2])nn1)[*:1]; isoGln = NC(=O)[C@H](CCC(=O)[*:2])N[*:1]

In the case of `COc1ccc(C2=N[C@@H](c3ccc(Cl)cc3)[C@@H](c3ccc(Cl)cc3)N2C(=O)N2CCNC(=O)C2)c(OC(C)C)c1` [Nutlin 3A], the EC50 with SW1990 was more than 100 µM; in the assay with SW626 (setting [1]) it was more than 100 µM; in the assay on SW626 (setting [2]) it was 50.3 ± 0.2 µM; in the assay on MIA PaCa-2, more than 50 µM; with SW480, 58.7 ± 7.5 µM; with A2780, 9.3 ± 0.5 µM. For the same molecule, the EC50 in the assay on HT29 was more than 100 µM; with PC-3 it was more than 100 µM; in the assay on AsPC-1, more than 100 µM; in the assay with NIHOVCAR3 it was 57.7 ± 0.1 µM; in the assay with ES-2 it was 92.3 ± 1.2 µM; in the assay with Capan-1, more than 100 µM. Also, the EC50 with SKOV 3 was more than 100 µM; in the assay on CFPAC-1, more than 50 µM; with BxPC-3 it was 38.5 ± 5.1 µM; with PANC-1, 41.9 ± 6.9 µM; in the assay on DU145, more than 100 µM; in the assay with HPAF-II, more than 50 µM.

`N=C(N)NCCC[C@@H]1NC(=O)[C@@H](CCCNC(=N)N)NC(=O)[C@H](CCCCN)NC(=O)[C@@H](N)CCCCNC(=O)CC[C@@H](C(=O)O)NC(=O)[C@@H](CCCNC(=N)N)NC(=O)[C@H](CCCNC(=N)N)NC(=O)[C@@H](CCCCN)NC(=O)[C@H](CCCCN)NC(=O)[C@@H](CCCNC(=N)N)NC(=O)CNC(=O)[C@@H](CCCNC(=N)N)NC1=O` [cTAT] (H-KK[dR]R[dR]G[dR]K[dK]R[dR]E-OH; lactam 1-12; N-terminus and C-terminus assumed): the EC50 in the assay on SW1990, with SW626 (setting [1]), in the assay with SW626 (setting [2]), in the assay on MIA PaCa-2, in the assay with SW480 and in the assay with A2780 was more than 100 µM throughout. The EC50 with HT29, with PC-3, in the assay on AsPC-1, in the assay with NIHOVCAR3, in the assay on ES-2 and in the assay with Capan-1 was more than 100 µM in each case. For the same molecule, the EC50 in the assay on SKOV 3, with CFPAC-1, with BxPC-3, with PANC-1, with DU145 and in the assay on HPAF-II was more than 100 µM throughout.

For “I: cyclo(ACICRHDSYCGSGSDGGVCPNLYLLCRRDKDCPG) / II: KK[dR]R[dR]G[dR]K[dK]R[dR][isoGln] (disulfide I:2-I:19, I:4-I:26, I:10-I:32; linker I:30-II:N via X1; lactam II:1-II:C) [Cyclotide 52-2-cTAT]”, the EC50 with SW1990 was determined as 11.9 ± 1.3 µM; in the assay with SW626 (setting [2]), 27.5 ± 0.7 µM; in the assay with MIA PaCa-2 it was 15.4 ± 1.6 µM; in the assay on SW480, 10.9 ± 1.3 µM; in the assay on A2780, 9.7 ± 0.5 µM; in the assay with HT29 it was 9.9 ± 0.9 µM. The EC50 was 23.2 ± 0.6 µM in the assay on PC-3; 11.5 ± 1.5 µM in the assay on AsPC-1; 7.8 ± 0.1 µM in the assay with NIHOVCAR3; 6.38 ± 0.1 µM in the assay with ES-2; 3.3 ± 0.3 µM with Capan-1; 19.1 ± 0.1 µM in the assay on SKOV 3. Besides, the EC50 with CFPAC-1 came to 13.4 ± 1.8 µM; with BxPC-3 it was 10.6 ± 1 µM; with PANC-1 it was 20.5 ± 2.5 µM; in the assay on DU145, 37 ± 1.2 µM; with HPAF-II it was 14.6 ± 1.8 µM.
